The values below come from paper PMC3433420 (PLoS ONE, 2012).

Assay [1] has as its system 93 human SH2 domains and 2 phosphotyrosine binding (PTB) domains. In words: FP saturation binding assay, whole domain panel (protein named per line or not at all). On the procedure: (See Figure 1A) Rhodamine-labeled peptides were dissolved in assay buffer (20 mM HEPES, 100 mM KCl, 0.1% Tween-20, 5 mM DTT, pH 7.8), diluted to a concentration of 20 nM, and plated into black 384-well plates (Corning, Corning, NY) at 5 µL/well using a Perkin Elmer EP3 pipetting workstation (V&P Scientific, Inc., San Diego, CA). SH2, PTB, and thioredoxin control proteins were plated into the first column of 2 mL 96-well plates (Corning) at a concentration of 20 µM and serially diluted 1∶2 into freezing buffer (300 mM NaCl, 50 mM Na2PO4, pH 8, 20% glycerol v/v) eleven times using a Tecan Freedom EVO 100 workstation (Tecan, Männedorf, Switzerland). For the interaction assay, 5 µL of each of the twelve protein concentrations was added to the peptide-containing 384-well plates via the EP3 resulting in a protein dilution range of 0.002–10 µM and a final volume of 10 µL; peptide concentration was fixed at 10 nM. Peptide/protein samples were incubated for 20 minutes at room temperature in the dark and fluorescence polarization (FP) was measured in an Analyst GT multimode reader (Molecular Devices, Sunnyvale, CA) with excitation and emission wavelengths of 530 nm and 555 nm, respectively. Experimental values were output as millipolarization (mP) units and imported into MATLAB (The MathWorks, Inc., Natick, MA) in which equation (1) was used to determine dissociation constants (KDs) for each protein/peptide pairing by least squares nonlinear regression. [drawing 1] (1)
To scale up the number of interaction measurements while minimizing variation introduced by human intervention, we utilized an automated robotic platform (Figure 1A; see experimental procedures and Supplementary Methods) to transfer, incubate, and measure the fluorescence polarization (FP) induced from interactions of a titration series of SH2 domains with synthetic rhodamine-labeled ErbB phosphopeptides. Experimental values were output as millipolarization (mP) units and equation (1) was used to fit apparent midpoint dissociation constants (KDs) for each protein/peptide pair using non-linear regression (see experimental procedures).
For this interaction analysis, we synthesized and queried the interaction of phosphopeptides corresponding to 89 of 92 ErbB family intracellular tyrosines with 93 SH2 domains. Because nine peptide sequences share 100% identity between the receptors in the 4 to 7 amino acids C-terminal to the phosphorylated tyrosine, our peptide set consisted of 81 phosphopeptides corresponding to the 89 unique tyrosine containing sequences (Table S2). This peptide set represents a 50% increase over the three PM studies performed to date. We were therefore able to obtain a more systematic and unbiased view of the relative SH2 domain recruitment potential of each receptor. Although most ErbB receptor auto-phosphorylation sites have been detected frequently by mass spectrometry because of their high relative modification stoichiometry, non-auto-phosphorylation sites have been reported less frequently in the literature (Table S3). We reasoned that many physiologically relevant and uncharacterized ErbB tyrosines of low phosphorylation stoichiometry may exist and that our comprehensive interaction analysis might implicate their importance in mediating physiological interactions. We tested the majority of interactions (7099/8160 (87.0%); Figure S3) three or more times and reported standard error for all interactions that were detected in at least three FP runs (Table S4). […] Analysis of this polarization data may be useful for inferring how SH2 proteins bind to different peptide sequences. Larger proteins and proteins binding closer to the N-terminal rhodamine tag of a given peptide would be expected to induce higher maximal polarization (the calculated maximal polarization value at infinite protein concentration) than proteins binding farther from the tag. In addition to phosphopeptides, we queried a representative set of 27 non-phosphopeptides against the entire domain set. […]

A further assay deals with SH2 and PTB domains. Conditions: ref Kaushansky et al. Mol Biosys 2008, cited from earlier work. An excerpt:
Supplement pone.0044471.s022.xlsx, sheet "Most recent PM interactions" | column: Kd || Supplement pone.0044471.s022.xlsx, sheet "All original PM interactions" | column: Kd

Another assay has as its target GRB7 SH2 domain (Homo sapiens, UniProt Q14451). In words: FP saturation binding assay.
Assay [2] concerns the target PIK3R2-NC tandem SH2 domains (Homo sapiens, UniProt O00459). Nature of the assay: FP saturation binding assay.
The next assay has as its target T1, PLCG1-C SH2 domain (Homo sapiens, UniProt P19174).
T1 construct: The 6X His-tagged SH2 domain proteins used in the assay, PLCG1-C, SHC4, VAV2; thioredoxin; made in house; host or cells: E. coli BL21(DE3)pLysS
T1 sequence (P19174 668-756 limits assumed): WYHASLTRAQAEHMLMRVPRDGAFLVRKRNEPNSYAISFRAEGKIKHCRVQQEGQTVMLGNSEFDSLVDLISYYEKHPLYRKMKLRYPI
Nature of the assay: biochemical. Type of assay: binding. Conditions: protein PLCG1-C; high-confidence ErbB interactions; mean of replicate hits.

Where two headings read alike, the source gives them in different places. Residues, ends and D or L forms follow the SMILES beside them. Bounds are passed on as bounds.

GRB7 SH2 domain, sequence (Q14451 431-527 limits assumed): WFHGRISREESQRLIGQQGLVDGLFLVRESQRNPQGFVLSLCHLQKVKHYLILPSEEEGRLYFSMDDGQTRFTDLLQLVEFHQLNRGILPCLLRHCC
PIK3R2-NC tandem SH2 domains, sequence (O00459 330-716 limits assumed): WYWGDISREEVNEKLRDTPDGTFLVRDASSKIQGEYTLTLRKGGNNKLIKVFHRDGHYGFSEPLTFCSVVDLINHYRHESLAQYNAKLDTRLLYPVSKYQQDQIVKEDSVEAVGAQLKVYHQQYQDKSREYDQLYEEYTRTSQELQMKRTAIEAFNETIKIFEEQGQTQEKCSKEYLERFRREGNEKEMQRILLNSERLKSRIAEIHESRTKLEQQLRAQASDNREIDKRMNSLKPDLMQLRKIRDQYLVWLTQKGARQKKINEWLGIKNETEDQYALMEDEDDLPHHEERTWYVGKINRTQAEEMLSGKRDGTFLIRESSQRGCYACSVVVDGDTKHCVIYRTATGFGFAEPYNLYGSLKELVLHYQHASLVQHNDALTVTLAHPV

By Kd is commonly meant the constant that tells how readily two partners part at equilibrium. For the compound “IGSQpYLLNWCVQd [ErbB1 pY813, N-terminally rhodamine-labeled 13-mer phosphopeptide]”, the “interaction with the SH2/PTB domain panel” value in assay [1] (KD <= 20 µM counted as interaction) is on record as “reproducibly interacted at high affinity with many SH2 domains”. Also, the “SH2 domains found to interact” value in assay [1] (high-confidence interactions (Table S11, Figure S14)) is “interacted with tensin family SH2 domains”. Also, the Kd at SH2 and PTB domains (protein ABL2) was 200 nM; on SH2 and PTB domains (protein GRB10) it was 350 nM; at SH2 and PTB domains (protein ITK) it was 310 nM; on SH2 and PTB domains (protein NCK2), 200 nM; at SH2 and PTB domains (protein PIK3R1-C), 1850 nM; on SH2 and PTB domains (protein PIK3R1-NC), 1820 nM. The dissociation constant Kd at SH2 and PTB domains (protein PIK3R3-NC) is 1870 nM; at SH2 and PTB domains (protein RASA1-C), 1950 nM; at SH2 and PTB domains (protein RASA1-NC) it was 160 nM; at SH2 and PTB domains (protein SH2D1B), 1600 nM; on SH2 and PTB domains (protein SH2D3C), 50 nM; at SH2 and PTB domains (protein SHB), 280 nM. Besides, the Kd at SH2 and PTB domains (protein SHE) was 1380 nM; on SH2 and PTB domains (protein SHF), 1060 nM; on SH2 and PTB domains (protein SRC), 80 nM; on SH2 and PTB domains (protein SYK-NC) it was 240 nM; on SH2 and PTB domains (protein TENC1), 1150 nM; at SH2 and PTB domains (protein TNS3), 1890 nM. In addition, the Kd was 370 nM on SH2 and PTB domains (protein VAV1); 470 nM on SH2 and PTB domains (protein VAV2); 960 nM at SH2 and PTB domains (protein VAV3); 22 nM at SH2 and PTB domains (protein YES1).

Turning to `CSCC[C@H](NC(=O)[C@H](Cc1ccc(O)cc1)NC(=O)[C@H](CCC(=O)O)NC(=O)[C@H](Cc1ccc(OP(=O)(O)O)cc1)NC(=O)[C@H](CCC(=O)O)NC(=O)[C@H](CCC(=O)O)NC(=O)[C@H](CC(=O)O)NC(=O)[C@@H](N)CCC(=O)O)C(=O)N[C@@H](CC(N)=O)C(=O)N[C@@H](CCCNC(=N)N)C(=O)N[C@@H](CCCNC(=N)N)C(=O)N[C@@H](CCCNC(=N)N)C(=O)N[C@@H](CC(=O)O)C(=O)O` [ErbB3 pY1197] (HELM PEPTIDE1{E.D.E.E.[O=C([C@H](Cc1ccc(OP(=O)(O)O)cc1)N[*:1])[*:2]].E.Y.M.N.R.R.R.D}$$$$V2.0), the Kd at GRB7 SH2 domain (KD for GRB7, FP saturation assay) is ≤ 100 nM.

Take `CC(C)C[C@H](NC(=O)[C@H](Cc1ccc(OP(=O)(O)O)cc1)NC(=O)[C@H](CC(C)C)NC(=O)[C@@H]1CCCN1C(=O)[C@H](CCC(=O)O)NC(=O)[C@@H](N)CC(N)=O)C(=O)N[C@@H](CC(N)=O)C(=O)N[C@H](C(=O)N[C@@H](Cc1ccccc1)C(=O)N[C@@H](C)C(=O)N[C@@H](CC(N)=O)C(=O)N[C@H](C(=O)N[C@@H](CC(=O)O)C(=O)O)[C@@H](C)O)[C@@H](C)O` [ErbB4 1208 13-mer] (HELM PEPTIDE1{N.E.P.L.[O=C([C@H](Cc1ccc(OP(=O)(O)O)cc1)N[*:1])[*:2]].L.N.T.F.A.N.T.D}$$$$V2.0): the Kd in assay [2] worked out at 11300 nM; on GRB7 SH2 domain (Mean KD, protein GRB7, high-confidence ErbB interactions, mean of replicate hits) it was 8960 nM; at PLCG1-C SH2 domain, 5110 nM.
